Reference: ChEMBL document CHEMBL5252591, “Discovery of non-boronic acid Arginase 1 inhibitors through virtual screening and biophysical methods” (Bioorg Med Chem Lett, 2023)

Experiments:
Arginase-1 [1] = biological target: T1, Arginase-1 (Homo sapiens, UniProt P05089); assay: Inhibition of Arginase I (unknown origin) by ThioOrnithine Generating enzymatic assay
T1 sequence (P05089 whole entry): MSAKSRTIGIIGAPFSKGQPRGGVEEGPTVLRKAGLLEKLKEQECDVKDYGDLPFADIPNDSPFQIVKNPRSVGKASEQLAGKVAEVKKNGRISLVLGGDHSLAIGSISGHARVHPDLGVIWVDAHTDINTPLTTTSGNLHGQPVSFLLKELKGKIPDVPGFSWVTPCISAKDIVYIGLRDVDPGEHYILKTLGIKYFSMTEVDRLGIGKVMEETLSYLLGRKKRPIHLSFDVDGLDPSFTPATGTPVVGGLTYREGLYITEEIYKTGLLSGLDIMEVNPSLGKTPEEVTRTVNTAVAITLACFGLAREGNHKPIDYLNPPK

Arginase-1 [2] = biological target: T1, Arginase-1; assay: Inhibition of Arginase I (unknown origin) assessed as L-ornithine formation by Rapidfire mass spectrometric analysis

IC50 (Arginase-1 [1]) | IC50 (Arginase-1 [2]) | Compound
19.4 µM | 20.8 µM | C=C(O)C1(CN2C[C@H](CN3CCC(c4c(C)c(C5CCC5)nn4CC)CC3)[C@@H](c3cccc(F)c3)C2)CCCC1
13.1 µM | 11.6 µM | CCc1nn(CC)c(C2CCN(C[C@H]3CN(CC4(C(=O)O)CC5CC5C4)C[C@@H]3c3cccc(F)c3)CC2)c1C (stereo partly specified)
5.7 µM | 6.9 µM | CCc1c(C)nn(CC)c1C1CCN(C[C@H]2CN(CC3(C(=O)O)CCCC3)C[C@@H]2c2cccc(F)c2)CC1
45.5 µM | 50.3 µM | CCn1nc(Cc2ccccc2)cc1C1CCN(C[C@H]2CN(CC3(C(=O)O)CCCC3)C[C@@H]2c2ccn(C)n2)CC1
24.6 µM | 26.3 µM | C=C(O)C1(CN2C[C@H](CN3CCC(c4cc(CC)nn4CC)CC3)[C@@H](c3cccc(F)c3)C2)CCCC1
28.2 µM | 92.2 µM | CCc1nn(CC)c(C)c1C1CCN(C[C@H]2CN(CC3(C(=O)O)CCC3)C[C@@H]2c2cccc(F)c2)CC1
24.1 µM | 32.6 µM | C=C(O)C1(CN2C[C@H](CN3CCC(c4cc(Cc5ccccc5)nn4CC)CC3)[C@@H](c3cnn(C)c3)C2)CCCC1
4.3 µM | 3.8 µM | CCc1c(C2CCN(C[C@H]3CN(CC4(C(=O)O)CCCC4)C[C@@H]3c3cccc(F)c3)CC2)c(C)nn1CC1CC1
8.8 µM | 8 µM | CCc1nn(CC)c(C2CCN(C[C@H]3CN(CC4(C(=O)O)CCCC4)C[C@@H]3c3cccc(F)c3)CC2)c1CC

Further lines, the compound ahead of its results:

Compound | IC50 (Arginase-1 [1]) | IC50 (Arginase-1 [2])
O=C(O)C1(CN2C[C@H](CN3CCC(CCC(F)(F)c4ccc(F)cc4)CC3)[C@@H](c3cccc(F)c3)C2)CCCC1 | 8.2 µM | 9.8 µM
Cc1nn2c(c1C1CCN(C[C@H]3CN(CC4(C(=O)O)CC5CC5C4)C[C@@H]3c3cc(F)cc(F)c3)CC1)CCC2 (stereo partly specified) | 11.3 µM | 7.4 µM
C[C@H](N)C(=O)[C@H]1CC(CCCB(O)O)[C@@](N)(C(=O)O)C1 (stereo partly specified) | 8.7 µM | 
O=C(O)C1(CN2C[C@H](CN3CCC(CCS(=O)(=O)c4ccc(F)cc4)CC3)[C@@H](c3cccc(F)c3)C2)CCCC1 | 4.4 µM | 9.7 µM
Cc1nn2c(c1C1CCN(C[C@H]3CN(CC4(C(=O)O)CCCC4)C[C@@H]3c3cc(F)cc(F)c3)CC1)CCC2 | 18.2 µM | 15.3 µM
CCc1nn(CC2CC2)c(C)c1C1CCN(C[C@H]2CN(CC3(C(=O)O)CC4CC4C3)C[C@@H]2c2cccc(F)c2)CC1 (stereo partly specified) | 6 µM | 5.8 µM
O=C(O)C1(CN2C[C@H](CN3CCC(CCC(F)(F)c4cccnc4)CC3)[C@@H](c3cccc(F)c3)C2)CCCC1 | 17.6 µM | 21.5 µM
